For orientation: IC50 means the concentration that inhibits the measured activity by half. The low end stands for greater potency in that assay, the high end for weaker potency in that assay.

Molecules are shown by their SMILES.

This assay concerns HSV-1. In words: HSV-1 infection of Vero 76 cells, viral DNA detected by hybridization capture (chemiluminescence). Type of assay: cell-based. As to conditions: Human alphaherpesvirus 1; HSV-1 in Vero 76 cells, MOI=0.001, compounds incubated 40–48 hours at 37° C. The procedure: Vero 76 cells were maintained in MEM with Earle's salts, L-glutamine, 8% FBS (Hyclone, A-1111-L) and 100 units/mL Penicillin-100 μg/mL Streptomycin. For assay conditions, FBS was reduced to 2%. Cells are seeded into 96-well tissue culture plates at a density of 5×10^4 cells/well after being incubated for 45 min at 37° C. in the presence of HSV-1 or HSV-2 (MOI=0.001). Test compounds are added to the wells and the plates are incubated at 37° C. for 40–48 hours. Cell lysates are prepared as follows: media was removed and replaced with 150 μL/well 0.2 N NaOH with 1% Igepal CA 630 or NP-40. Plates were incubated up to 14 days at room temperature in a humidified chamber to prevent evaporation.
For the detection probe, a gel-purified, digoxigenin-labeled, 710-bp PCR fragment of the HSV UL-15 sequence was utilized. PCR conditions included 0.5 μM primers, 180 μM dTTP, 20 μM dUTP-digoxigenin (Boehringer Mannheim 1558706), 200 μM each of dATP, dCTP, and dGTP, 1×PCR Buffer II (Perkin Elmer), 2.5 mM MgCl2, 0.025 units/μL of AmpliTaq Gold polymerase (Perkin Elmer), and 5 ng of gel-purified HSV DNA per 100 μL Extension conditions were 10 min at 95° C., followed by 30 cycles of 95° C. for 1 min, 55° C. for 30 sec. and 72° C. for 2 min. The amplification was completed with a 10-min incubation at 72° C. Primers were selected to amplify a 728 bp probe spanning a section of the HSV1 UL15 open reading frame (nucleotides 249–977). Single-stranded transcripts were purified with Promega M13 Wizard kits. The final product was mixed 1:1 with a mixture of 6 M GuSCN, 100 mM EDTA and 200 μg/mL herring sperm DNA and stored at 4° C.
The capture DNA plasmid (HSV UL13 region in pUC) was linearized by cutting with Xba I, denatured for 15 min at 95° C. and diluted immediately into Reacti-Bind DNA Coating Solution (Pierce, 17250, diluted 1:1 with TE buffer, pH 8) at 1 ng/μL 75 μL/well were added to Corning (#3922 or 9690) white 96-well plates and incubated at room temperature for at least 4 hrs before washing twice with 300 μL/well 0.2×SSC/0.05% Tween-20 (SSC/T buffer). The plates were then incubated overnight at room temperature with 150 μL/well 0.2 N NaOH, 1% IGEPAL and 10 μg/mL herring sperm DNA.
Twenty-seven (27) μL of lysate was combined with 45 μL of hybridization solution (final concentration: 3M GuSCN, 50 mM EDTA, 100 μg/ml salmon sperm DNA, 5×Denhardt's solution, 0.25×APE, and 5 ng of the digoxigenin-labeled detection probe). APE is 1.5 M NH4-acetate, 0.15 M NH4H2 phosphate, and 5 mM EDTA adjusted to pH 6.0 Mineral oil (50 μL) was added to prevent evaporation. The hybridization plates were incubated at 95° C. for 10 minutes to denature the DNA, then incubated at 42° C. overnight. The wells were washed 6× with 300 μl/well SSC/T buffer then incubated with 75 μL/well anti-digoxigenin-HRP-conjugated antibody (Boehringer Mannheim 1207733, 1:5000 in TE) for 30 min at room temperature. The wells were washed 6× with 300 μL/well with PBS/0.05% Tween-20 before 75 μL/well SuperSignal LBA substrate (Pierce) was added. The plates were incubated at room temperature for 30 minutes and chemiluminescence was measured in a Wallac Victor reader.
Regarding `CC(C)Nc1ccc2c(-c3ccnc(NC4CCCC4)n3)c(-c3ccc(F)cc3)nn2c1` [Example 7, 3-[2-(Cyclopentylamino)-4-pyrimidinyl]-2-(4-fluorophenyl)-N-isopropylpyrazolo[1,5-α]pyridin-6-amine], it took 1.2 µM to reach half-maximal inhibition (IC50). This counts as single-digit micromolar.
In turn, `CS(=O)(=O)Nc1ccn2nc(-c3ccc(F)cc3)c(-c3ccnc(NC4CCCC4)n3)c2c1` [Example 4, N-[3-[2-(Cyclopentylamino)-4-pyrimidinyl]-2-(4-fluorophenyl)pyrazolo[1,5-α]pyridin-5-yl]methanesulfonamide] returned an IC50 of 2 µM.
With `Fc1ccc(-c2nn3ccc(NC4CCCC4)cc3c2-c2ccnc(NC3CCCC3)n2)cc1` [Example 2, N-Cyclopentyl-3-[2-(cyclopentylamino)-4-pyrimidinyl]-2-(4-fluorophenyl)pyrazolo[1,5-α]pyridin-5-amine] the figure was 0.5 µM.
Take `COc1ccc(-c2nn3ccc(NC4CCCC4)c(Br)c3c2-c2ccnc(NC3CCCC3)n2)cc1` [Example 15, 4-Bromo-N-cyclopentyl-3-[2-(cyclopentylamino)pyrimidin-4-yl]-2-(4-methoxyphenyl)pyrazolo[1,5-α]pyridin-5-amine]: the IC50 is 3.5 µM.
For `Fc1ccc(-c2nn3ccc(NC4CCCC4)c(Cl)c3c2-c2ccnc(NC3CCCC3)n2)cc1` [Example 14, 4-Chloro-N-cyclopentyl-3-[2-(cyclopentylamino)pyrimidin-4-yl]-2-(4-fluorophenyl)pyrazolo[1,5-α]pyridin-5-amine], the IC50 was found to be 1.9 µM. This IC50 is about 1.8-fold lower than that of the molecule before.
For the molecule `COCCNc1ccn2nc(-c3ccc(F)cc3)c(-c3ccnc(NC4CCCC4)n3)c2c1` [Example 8, 3-[2-(Cyclopentylamino)-4-pyrimidinyl]-2-(4-fluorophenyl)-N-(2-methoxyethyl)pyrazolo[1,5-α]pyridin-5-amine], the IC50 is 1 µM.
With `CC(C)COc1ccc(-c2nn3ccc(NC4CCCC4)cc3c2-c2ccnc(NC3CCCC3)n2)cc1` [Example 19, N-Cyclopentyl-3-[2-(cyclopentylamino)-4-pyrimidinyl]-2-(4-isobutoxyphenyl)pyrazolo[1,5-α]pyridin-5-amine] the figure was 0.5 µM; with `COc1ccc(-c2nn3ccc(NC(C)C)cc3c2-c2ccnc(NC3CCCC3)n2)cc1` [Example 12, 3-[2-(Cyclopentylamino)-4-pyrimidinyl]-N-isopropyl-2-(4-methoxyphenyl)pyrazolo[1,5-α]pyridin-5-amine], 0.8 µM.
With `CCCCNc1cc(-c2c(-c3ccc(F)cc3)nn3cccc(NCCCC)c23)ccn1` [Example 17, N-Butyl-3-[2-(butylamino)pyridin-4-yl]-2-(4-fluorophenyl)pyrazolo[1,5-α]pyridin-4-amine] the figure was 2.5 µM; with `c1cc(-c2c(-c3ccc(OCC4CC4)cc3)nn3ccc(NC4CCCC4)cc23)nc(NC2CCCC2)n1` [Example 20, N-Cyclopentyl-3-[2-(cyclopentylamino)-4-pyrimidinyl]-2-[4-(cyclopropylmethoxy)phenyl]pyrazolo[1,5-α]pyridin-5-amine], 0.3 µM; with `Oc1ccc(-c2nn3ccc(NC4CCCC4)cc3c2-c2ccnc(NC3CCCC3)n2)cc1` [Example 18, 4-{5-(Cyclopentylamino)-3-[2-(cyclopentylamino)-4-pyrimidinyl]pyrazolo[1,5-α]pyridin-2-yl}phenol], 1.2 µM.
With `Nc1ccc2c(-c3ccnc(NC4CCCC4)n3)c(-c3ccc(F)cc3)nn2c1` [Example 5, 3-[2-(cyclopentylamino)-4-pyrimidinyl]-2-(4-fluorophenyl)pyrazolo[1,5-α]pyridin-6-amine] the figure was 0.24 µM; with `COc1ccc(-c2nn3ccc(NC4CCCC4)c(Cl)c3c2-c2ccnc(NC3CCCC3)n2)cc1` [Example 16, 4-Chloro-N-cyclopentyl-3-[2-(cyclopentylamino)pyrimidin-4-yl]-2-(4-methoxyphenyl)pyrazolo[1,5-α]pyridin-5-amine], 2.8 µM; with `Fc1ccc(-c2nn3ccc(NC4CCCC4)c(Br)c3c2-c2ccnc(NC3CCCC3)n2)cc1` [Example 13, 4Bromo-N-cyclopentyl-3-[2-(cyclopentylamino)pyrimidin-4-yl]-2-(4-fluorophenyl)pyrazolo[1,5-α]pyridin-5-amine], 3 µM.
As to `COc1ccc(-c2nn3ccc(NC4CCCC4)cc3c2-c2ccnc(NC3CCCC3)n2)cc1` [Example 10, N-Cyclopentyl-3-[2-(cyclopentylamino)-4-pyrimidinyl]-2-(4-methoxyphenyl)-pyrazolo[1,5-α]pyridin-5-amine], the IC50 was found to be 0.2 µM.
With `CC(C)Nc1ccn2nc(-c3ccc(F)cc3)c(-c3ccnc(NC4CCCC4)n3)c2c1` [Example 9, 3-[2-(Cyclopentylamino)-4-pyrimidinyl]-2-(4-fluorophenyl)-N-isopropylpyrazolo[1,5-α]pyridin-5-amine] the figure was 2.9 µM; with `Fc1ccc(-c2nn3cc(NC4CCCC4)ccc3c2-c2ccnc(NC3CCCC3)n2)cc1` [Example 6, N-Cyclopentyl-3-[2-(cyclopentylamino)-4-pyrimidinyl]-2-(4-fluorophenyl)pyrazolo[1,5-α]pyridin-6-amine], 1 µM.
Consider `Nc1ccn2nc(-c3ccc(F)cc3)c(-c3ccnc(NC4CCCC4)n3)c2c1` [Example 3, 3-[2-(Cyclopentylamino)-4-pyrimidinyl]2-(4-fluorophenyl)pyrazolo[1,5-α]pyridin-5-amine], for which the IC50 came out at 5 µM.

The values are drawn from patent US7141569B2, “Antiviral pyrazolopyridine compounds” (SmithKline Beecham Corporation, priority 2001, dated 2006).
